Data: patent US20030219491A1, “Compositions for inhibiting tumor growth and methods thereof” (priority 2002, published 2003)

Experiments:
[1] = biological target: polyhemoglobin-tyrosinase complex (bovine hemoglobin crosslinked with mushroom tyrosinase) (Bos taurus, UniProt P01966+P02070); details: crosslink time 24 h; versus pure bovine hemoglobin in free form
[2] = system: tyrosinase from mushroom, encapsulated (1020 U/3 ml); experiment: Apparent Vmax and apparent Km of encapsulated tyrosinase; assay type: biochemical; details: substrate tyrosine
Excerpt: (§1) L-tyrosine (98% TLC), hemoglobin from bovine (lyophilized powder), hemoglobin assay kit, tyrosinase from mushroom (3400 U/mg manufacturer's stated activity) were purchased from Sigma-Aldrich (Oakville, Canada). Collodion was obtained from Fisher Scientific (Nepean, Canada). Glutaraldehyde (25%) was obtained from Polyscienes (Warrington, Pa.). Purified bovine hemoglobin was purchased from Biopure Corporation (Boston, Mass.). All other reagents were of analytical grade.
One gram hemoglobin and 200 mg […] was dissolved in 10 ml double distilled deionized water. Stir with a metal rod until everything is dissolved. Gravity filter the solution through a Waterman #42 filter into a Erlenmeyer flask. Take 2.5 ml of this 10 g/dl hemoglobin solution and was encapsulated within spherical, ultrathin, cellulose nitrate membrane. Without tyrosinase loaded microcapsules were administrated orally to control group. For tyrosinase loaded microencapsules, […] of 3400 U/mg tyrosinase was dissolved in 2.5 ml 10% hemoglobin solution, then followed the methods described above to immobilize tyrosinase in collodion membrane microcapsules. Microcapsules prepared as a 50% suspension for later feeding. […]
Next, the apparent Vmax and apparent Km value for encapsulated tyrosinase (1020 U/3 ml) were studied. The leakage of encapsulated tyrosinase is also measured.

[3] = system: tyrosinase from mushroom, free (1020 U/3 ml); experiment: Vmax and Km of free tyrosinase; assay type: biochemical; details: substrate tyrosine
Excerpt: as §1
This is to characterize the enzyme kinetics of the preparation and comparing this encapsulated tyrosinse preparation to free tyrosinase.

polyhemoglobin-tyrosinase complex (bovine hemoglobin crosslinked with mushroom tyrosinase), sequence (P01966 whole entry): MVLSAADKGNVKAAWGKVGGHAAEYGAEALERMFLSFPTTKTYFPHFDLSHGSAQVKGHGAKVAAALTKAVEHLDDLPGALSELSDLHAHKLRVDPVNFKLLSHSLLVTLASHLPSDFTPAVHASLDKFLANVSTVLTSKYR
polyhemoglobin-tyrosinase complex (bovine hemoglobin crosslinked with mushroom tyrosinase), sequence (P02070 whole entry): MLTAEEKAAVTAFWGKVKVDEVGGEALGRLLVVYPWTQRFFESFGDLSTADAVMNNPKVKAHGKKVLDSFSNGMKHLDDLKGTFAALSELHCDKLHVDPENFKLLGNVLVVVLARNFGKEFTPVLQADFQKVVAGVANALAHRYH

SMILES	P50 (oxygen dissociation), difference from free hemoglobin [1]	Apparent Vmax [2] [mg/dl · min]	Km [2] [µM]	Vmax [3] [mg/dl · min]
O=O [oxygen]	no significant difference	–	–	–
N[C@@H](Cc1ccc(O)cc1)C(=O)O [tyrosine, L-tyrosine]	–	49.02	465	114.94
